Here are results for two molecules from US20260118345A1, “METHOD OF EVALUATING INTERCELLULAR INTERACTIONS IN NEUROINFLAMMATION” (FUJIFILM Corporation, priority 2023, published 2026).

What all share (assay type): cell-based, human
Test [1] concerns three-cell-type co-culture of neurons, astrocytes, and microglia. In words: Neural activity by calcium imaging (BPM), two-dimensional three-cell-type co-culture of neurons, astrocytes and microglia. The settings on record: 24 hours after stimulation (TNF-α 7.5 ng/mL or LPS 100 ng/mL). How it is done:
Matrigel basement membrane matrix (Corning, 356234) diluted 120-fold with DMEM/F12 (Life technologies, 11320-033) was added to a 96-well plate at 65 μL/well and allowed to stand at 4° C. After 24 hours, the culture medium was replaced with a progenitor cell culture medium and used. Astrocyte precursor cells (XCell Science, XCS-AP-001-1V) were seeded in a 96-well plate at a density of 6×10^4 cells/well, cultured under the conditions of 37° C. and 5% CO2, after culture medium was replaced with the differentiation induction culture medium, further cultured for 5 days to differentiate into astrocytes. […] After centrifugation, the supernatant was removed, the cells were suspended in 1 mL of the co-culture medium, and the number of cells was counted. […] After centrifugation, the supernatant was removed, the cells were suspended in 1 mL of the co-culture medium, and the number of cells was counted. […] In addition, at 24 hours after the stimulation with LPS or TNF-α, the neural activity was evaluated by calcium imaging. […] After incubating for 1 hour under conditions of 37° C. and 5% CO2, the solution was replaced with a warmed (37° C.) recording solution, and the fluorescence was measured for 10 minutes with FDSS (registered trademark)/μcell (Hamamatsu Photonics K. K., C13299). […]

The subject of test [2] is NF-κB. In words: NF-κB localization after TNF-α stimulation, two-dimensional two-cell-type co-culture of neurons and astrocytes. The settings on record: TNF-α 7.5 ng/mL; 3 hours after the stimulation. The procedure:
(§1) Matrigel basement membrane matrix (Corning, 356234) diluted 120-fold with DMEM/F12 (Life technologies, 11320-033) was added to a 96-well plate at 65 μL/well and allowed to stand at 4° C. After 24 hours, the culture medium was replaced with a progenitor cell culture medium and used.
Astrocyte precursor cells (XCell Science, XCS-AP-001-1V) were seeded in a 96-well plate at a density of 6×10^4 cells/well, cultured under the conditions of 37° C. and 5% CO2, after culture medium was replaced with the differentiation induction culture medium, further cultured for 5 days to differentiate into astrocytes.
The neurons were produced by forcibly expressing the Ngn2 genes from the iPS cells and the cells that had been frozen and stored were used. The cells that had been frozen and stored were thawed in a warm bath at 37° C., and after thawing, the cells were added to the co-culture medium and centrifuged at 600×g at room temperature for 5 minutes. After centrifugation, the supernatant was removed, the cells were suspended in 1 mL of the co-culture medium, and the number of cells was counted.
In the two-cell-type co-culture, the neurons were seeded on the astrocytes at 3×10^4 cells/well. […]
After 3 hours of the stimulation with TNF-α, the cells were fixed by the method described in <1> of Test Example 1, and the localization of NF-κB was evaluated by the same method as in <1> of Test Example 1.

The subject of test [3] is two-cell-type co-culture of neurons and astrocytes. In words: Neural activity by calcium imaging (BPM), two-dimensional two-cell-type co-culture of neurons and astrocytes. The conditions noted are these: 24 hours after stimulation (TNF-α 7.5 ng/mL or LPS 100 ng/mL). The procedure:
Matrigel basement membrane matrix (Corning, 356234) diluted 120-fold with DMEM/F12 (Life technologies, 11320-033) was added to a 96-well plate at 65 μL/well and allowed to stand at 4° C. After 24 hours, the culture medium was replaced with a progenitor cell culture medium and used. Astrocyte precursor cells (XCell Science, XCS-AP-001-1V) were seeded in a 96-well plate at a density of 6×10^4 cells/well, cultured under the conditions of 37° C. and 5% CO2, after culture medium was replaced with the differentiation induction culture medium, further cultured for 5 days to differentiate into astrocytes. […] After centrifugation, the supernatant was removed, the cells were suspended in 1 mL of the co-culture medium, and the number of cells was counted. […] In addition, at 24 hours after the stimulation with LPS or TNF-α, the neural activity was evaluated by calcium imaging. […] After incubating for 1 hour under conditions of 37° C. and 5% CO2, the solution was replaced with a warmed (37° C.) recording solution, and the fluorescence was measured for 10 minutes with FDSS (registered trademark)/μcell (Hamamatsu Photonics K. K., C13299). The neural activity was evaluated by quantifying the number of peaks of calcium oscillation using Wave Checker Software (Hamamatsu Photonics K. K.).

Test [4] has as its system NF-κB. Put plainly: NF-κB localization by immunostaining after LPS stimulation, two-dimensional three-cell-type co-culture of astrocytes, neurons and microglia. The settings on record: R-7050 10 μmol/L with LPS 100 ng/ml. The procedure: as §1
Astrocyte precursor cells (XCell Science, XCS-AP-001-1V) were seeded in a 96-well plate at a density of 5×10^4 cells/well and cultured under the conditions of 37° C. and 5% CO2. The next day, the culture medium was replaced with the differentiation-inducing culture medium and further cultured for 5 days to differentiate into astrocytes.
The neurons were produced by forcing expression of the Ngn2 gene from iPS cells (WO2014/148646A; and Zhang Y, et al., Neuron, 78:785-98, 2013), and the cells that had been frozen and stored were used. The cells that had been frozen and stored were thawed in a warm bath at 37° C., and after thawing, the cells were added to the co-culture medium and centrifuged at 600×g at room temperature for 5 minutes. After centrifugation, the supernatant was removed, the cells were suspended in 1 mL of the co-culture medium, and the number of cells was counted.
As the microglia, iPS cell-derived microglia (iCell (registered trademark) Microglia, FCDI, C1110) were used. The cells that had been frozen and stored were thawed in a warm bath at 37° C., and after thawing, the cells were added to the co-culture medium and centrifuged at 600×g at room temperature for 5 minutes. After centrifugation, the supernatant was removed, the cells were suspended in 1 mL of the co-culture medium, and the number of cells was counted.
The neurons and the microglia were mixed in a ratio of 3:1 and seeded on the astrocytes at 4×10^4 cells/well. The cells were cultured under the conditions of 37° C. and 5% CO2, and half of the culture medium was replaced three times a week.
Microglia were specifically stimulated by adding LPS (FUJIFILM Wako Pure Chemical Corporation, 124-05151) at 100 ng/mL to the two-dimensional co-culture that had been cultured for 4 weeks. The cells were fixed by treating, for 30 minutes, with a formaldehyde solution (FUJIFILM Wako Pure Chemical Corporation, 061-00416) diluted 10-fold with PBS(−) (FUJIFILM Wako Pure Chemical Corporation, 166-23555) without treatment, and at 0.5 hours, 1 hour, 3 hours, 6 hours, and 24 hours after the treatment.
In addition, in the two-dimensional co-culture that had been cultured for 19 days, LPS (FUJIFILM Wako Pure Chemical Corporation, 124-05151) was added at 100 ng/ml and R-7050 (Cayman Chemical Company, 16870), which is a TNFR1 inhibitor, was added at 10 μmol/L, and the effect of TNF-α on the intercellular interaction induced by LPS stimulation was evaluated. The cells were fixed by treating, for 30 minutes, with a formaldehyde solution (FUJIFILM Wako Pure Chemical Corporation, 061-00416) diluted 10-fold with PBS (−) (FUJIFILM Wako Pure Chemical Corporation, 166-23555) without treatment, and at 0.5 hours, 1 hour, 3 hours, 6 hours, and 24 hours after the treatment.
The fixed cells were washed with PBS (−), and blocking and permeabilization were performed by treating with a solution (1% BSA/0.2% Triton X-100) in which BSA (Sigma-Aldrich, A4161) and Triton (registered trademark) X-100 (BioVision, 2104-100) were diluted to 1% and 0.2% with PBS (−) for 30 minutes. […]

As for TNF-α, the “BPM (the number of peaks of calcium oscillation per minute) as compared with the control” value in test [1] and in test [3] was “increase” throughout. Further, in test [2], the “nuclear translocation of NF-κB in GFAP-positive cells (astrocytes)” value is reported as “occurred”. Also, the “nuclear translocation of NF-κB in Neun-positive cells (neurons)” value in test [2] is given as “not confirmed”.
With `FC(F)(F)c1nnc2c(Sc3ccccc3)nc3ccc(Cl)cc3n12` [R-7050], the “activation of the microglia affecting other cells (intercellular interaction)” value in test [4] was “suppressed”. Also, the “nuclear signals of NF-κB, co-localization with microglia marker IBA1” value in test [4] (1, 3, and 6 hours after the LPS stimulation) is on record as “all co-localized with IBA1”. In test [4] (1, 3, and 6 hours after the LPS stimulation, co-culture cultured 19 days), the “nuclear translocation of NF-κB” value was “only some cells”.
